# Results as given in patent US11249070B2, “Anti-cancer drug assessment method” (TOPPAN PRINTING CO., LTD., priority 2016, dated 2022).
# Columns and labels:
# [1] = test system: human lung adenocarcinoma cell line A549; experiment: CNT with 5-FU with or without bevacizumab, NHDF/HUVEC cell structure, flow cytometer (Example 11); assay type: cell-based; conditions: 3D (NHDF, HUVEC), bevacizumab 2 μg per well in the combination, 72 hours
# Experimental: (§1) Thereafter, 400 μL of Fixation/Permilization solution (554722, produced by BD Bioscience) was added for fixation at 4° C. for 30 minutes, and the liquid component was removed. Then, 400 μL of Perm/Wash buffer attached to the kit was added, and centrifugation was performed at room temperature at 1120×g for 5 minutes. Thereafter, a primary antibody Monoclonal Mouse Anti-human Cytokeratin 7 (M7018, produced by DAKO) diluted with 5% FBS-containing PBS was added and allowed to react at 4° C. for 30 minutes. Then, the liquid component was removed, and washing was performed twice using Perm/Wash buffer attached to the kit. A secondary antibody Goat anti-Mouse IgG1 Cross-Adsorbed Secondary Antibody, Alexa Fluor 546 (A-11030, produced by Thermo Fischer Scientific) diluted with 5% FBS-containing PBS was added and allowed to react at 4° C. for 30 minutes. Thereafter, the liquid component was removed, washing was performed twice using Perm/Wash buffer attached to the kit, and the resultant was resuspended in 350 μL of 5% FBS-containing PBS.
# (§2) The number of cells emitting fluorescence in the suspension after fixation and staining was counted as viable cancer cells. The cell count was performed using a flow cytometer (produced by Sony).
# HCT116 = experiment: CNT with 5-FU with or without bevacizumab, 2D, spheroid, 3D (Example 5); assay type: cell-based, human; conditions: bevacizumab 2 μg per well in the combination, 72 hours
# HT29 = experiment: as above; assay type: cell-based, human; conditions: bevacizumab 2 μg per well in the combination, 72 hours
# From the text: Moreover, for comparison, in place of the above cell structures, structures were produced by culturing cancer cells so as to form a single layer in a general culture container (2D method), and spheroids were produced by spheroid culture of a mixture of 2×10^6 NHDF, 3×10^4 HUVEC, and 2×10^4 cancer cells (spheroid method).
# [2] = test system: human lung adenocarcinoma cell line A549; experiment: CNT with 5-FU with or without bevacizumab, lung stromal cells NHLF/HMVEC-L, flow cytometer (Example 10); assay type: cell-based; conditions: 5-FU 100 μM, bevacizumab 2 μg per well in the combination, 72 hours
# Experimental: as §1, §2
structure (smiles),measurement,setting,value
O=c1[nH]cc(F)c(=O)[nH]1 [5-FU],CNT (%) Average value,[1]; 5-FU 100 μM,28.8%
same,CNT (%) Average value,[1]; 5-FU 1 mM,7.7%
same,CNT (%) Average value,"HCT116; 2D, 5-FU 100 μM",38.9%
same,CNT (%) Average value,"HCT116; 2D, 5-FU 1 mM",15.3%
same,CNT (%) Average value,"HCT116; 3D, 5-FU 100 μM",86.9%
same,CNT (%) Average value,"HCT116; Spheroid, 5-FU 100 μM",62.3%
same,CNT (%) Average value,"HCT116; Spheroid, 5-FU 1 mM",27.7%
same,CNT (%) Average value,"HT29; 2D, 5-FU 100 μM",54.2%
same,CNT (%) Average value,"HT29; 2D, 5-FU 1 mM",25.8%
same,CNT (%) Average value,"HT29; 3D, 5-FU 1 mM",75.0%
same,CNT (%) Average value,"HT29; Spheroid, 5-FU 100 μM",57.5%
same,CNT (%) Average value,"HT29; Spheroid, 5-FU 1 mM",44.8%
same,CNT (%) Average value,[2]; 2D,37.7%
same,CNT (%) Average value,"[2]; 3D (NHLF, HMVEC-L)",72.9%
